The test system of test [1] is phenylquinone writhing in mice. Put plainly: Phenylquinone Writhing Test (analgesic activity). The format is in vivo, female white mice. Conditions: Mus musculus, oral, phenylquinone i.p., effective analgesic dose for 50% of the mice. From the text: A procedure for detecting and comparing the analgesic activity of compounds in this series and standard drugs for which there is a good correlation with human efficacy is the phenylquinone writhing test.
(§1) The test procedures employed for determining antiinflammatory and analgesic activity are described below with test data included in Tables VII and VIII.
The phenylquinone writhing test, modified from Siegmund, et al., Proc. Soc. Exp. Biol. Med. 95, 729 (1957), was employed. A test compound suspended in 1% methylcellulose was given orally to fasted (17-21 hours) female white mice, 5-20 animals per double blind test. Aqueous (0.01% phenyl-p-benzoquinone) phenylquinone was injected intraperitoneally at 24 minutes later using 0.20 ml per mouse. […] The effective analgesic dose for 50% of the mice (ED50) was calculated by the moving average method of Thompson, W. R., Bact. Rev. 11, 115-145 (1947).

For test [2], the system named is Adjuvant-Induced Arthritis in Rats. Put plainly: Established Adjuvant-Induced Arthritis in Rats. The format is in vivo, Charles River Lewis male rats. The following applies: for ED50: 168 h, oral gavage daily for 7 days, ED50% decrease from control paw volume. The procedure:
A procedure for detecting and comparing the antiinflammatory activity of compounds in this series and standard drugs for which there is a good correlation with human efficacy is the adjuvant-induced arthritis test in rats.
as §1
Charles River Lewis male rats (130-150 grams) are injected subcutaneously in plantar area of the right hind paw with 0.1 ml of adjuvant (Difco heat-killed, lyophilized Mycobacterium butyricum suspended in mineral oil 5 mg/ml). 20 Non-arthritic controls are injected with mineral oil. The animals are held for 2 weeks to allow development of arthritis. Paw volumes (uninjected, left hind paw) are measured and the adjuvant injected rats are culled and distributed to treatment groups of 10 of equal disease severity. Non-arthritic controls are distributed to 2 groups of 10. The rats are given oral doses of compound or PVA-Acacia (Polyvinyl Alcohol 1%, Gum Acacia, U.S.P. 5%, Methylparaben 0.5%) (10 ml/kg) by gavage on that day and on the 6 following days. One day after the last dose the paw volumes (uninjected, left hind paw) are measured using a Ugo Basile Volume Differential Meter Model 7101. [formula]
Dose-response regression lines of the % decrease are plotted on semi-log paper by visual fit and the ED50% decrease from control paw volume is determined by inspection.

The mark [3] stands for this setting: Rattus norvegicus, Table VII, oral, read-out: percent reduction in paw volume at the indicated dose.

As to `CC(=O)n1c(SC(F)(F)F)cc(-c2ccc(F)cc2)c1-c1ccc(F)cc1` [Example 73, 1-Acetyl-4,5-bis(4-fluorophenyl)-2-(trifluoromethylthio)pyrrole], the 50% effective dose (ED50) in test [1] (Table VIII) was > 108 mg/kg; in test [2] (Rattus norvegicus, Table VIII), 4 mg/kg.

Regarding `COc1ccc(-c2cc(SC(F)(F)F)[nH]c2-c2ccc(OC)cc2)cc1` [Example 2, 4,5-Bis(4-methoxyphenyl)-2-(trifluoromethylthio)pyrrole], the ED50 turned out to be 30 mg/kg in test [1] (Table VII) and 1.7 mg/kg in test [2] (Rattus norvegicus, Table VII).

In the case of `O=S(=O)(c1cc(-c2ccc(F)cc2)c(-c2ccc(F)cc2)[nH]1)C(F)(F)F` [Example 56], the ED50 in test [1] (Table VII) was > 135 mg/kg; in test [2] (Rattus norvegicus, Table VII), 1.4 mg/kg.

`CSc1cc(-c2ccc(C)cc2)c(-c2ccc(C)cc2)[nH]1` [Example 49]: the median effective dose (ED50) in test [1] (Table VII) is > 135 mg/kg; in test [2] (Rattus norvegicus, Table VII), 50 mg/kg.

Turning to `COc1ccc(-c2[nH]c(SC(F)(F)F)cc2-c2ccccc2)cc1` [Example 20], in test [1] (Table VIII), the ED50 was 22 mg/kg. Besides, the “Adjuvant Arthritis, value in parenthesis (percent reduction in paw volume/dose)” value in test [2] (Table VIII, oral, dose 27 (unit not given)) worked out at 44%.

For the molecule `FC(F)(F)Sc1cc(-c2ccccc2)c(-c2ccccc2)[nH]1` [Example 1, 4,5-Diphenyl-2-(trifluoromethylthio)pyrrole], the ED50 in test [1] (Table VII) is > 135 mg/kg. The inhibition in vivo at 25 mg/kg in test [2] (setting [3]) came out at 36%.

As for `Fc1ccc(-c2cc(SC(F)(F)F)[nH]c2-c2cccs2)cc1` [Example 27], the ED50 in test [1] (Table VIII) was > 108 mg/kg; in test [2] (Rattus norvegicus, Table VIII), ~27 mg/kg.

Consider `Fc1ccc(-c2cc(SC(F)(F)F)[nH]c2-c2ccc(Cl)cc2)cc1` [Example 7], for which the 50% effective dose (ED50) in test [1] (Table VII) is > 108 mg/kg; in test [2] (Rattus norvegicus, Table VII) it was 1.1 mg/kg.

Consider `CCOc1ccc(-c2[nH]c(S(=O)(=O)C(F)(F)F)cc2-c2ccc(F)cc2)cc1` [Example 60], for which the ED50 in test [1] (Table VII) is > 130 mg/kg; in test [2] (Rattus norvegicus, Table VII), 16 mg/kg.

The molecule `COc1ccc(-c2[nH]c(S(C)(=O)=O)cc2-c2ccc(F)cc2)cc1` [Example 68] had a median effective dose (ED50) in test [1] (Table VII) of 18 mg/kg. The inhibition in vivo at 27 mg/kg in test [2] (setting [3]) amounted to 34%.

In the case of `COc1ccc(-c2[nH]c(SC(F)(F)F)cc2-c2ccc(Cl)cc2)cc1` [Example 9], the median effective dose (ED50) in test [1] (Table VII) was > 108 mg/kg; in test [2] (Rattus norvegicus, Table VII) it was 6 mg/kg.

With `CSc1cc(-c2ccc(Cl)cc2)c(-c2ccccc2)[nH]1` [Example 48], the ED50 in test [1] (Table VII) is > 108 mg/kg. The inhibition in vivo at 45 mg/kg in test [2] (Rattus norvegicus, Table VII, oral, dose 45 mg/kg, read-out: percent reduction in paw volume at the indicated dose) came out at 22%.

Turning to `COc1ccc(-c2[nH]c(SC)cc2-c2ccc(Cl)cc2)cc1` [Example 46], the ED50 in test [1] (Table VII) came out at 63 mg/kg; in test [2] (Rattus norvegicus, Table VII), 23 mg/kg.

In the case of `CSc1cc(-c2ccc(Cl)cc2)c(-c2ccc(Cl)cc2)[nH]1` [Example 38], the ED50 in test [1] (Table VII) is > 108 mg/kg; in test [2] (Rattus norvegicus, Table VII) it was 10 mg/kg.

Regarding `CSc1cc(-c2ccc(F)cc2)c(-c2ccc(F)cc2)[nH]1` [Example 41], in test [1] (Table VII), the ED50 is > 108 mg/kg. The inhibition in vivo at 27 mg/kg in test [2] (setting [3]) was found to be 19%.

With `CS(=O)(=O)c1cc(-c2ccc(Cl)cc2)c(-c2ccc(F)cc2)[nH]1` [Example 66], the 50% effective dose (ED50) in test [1] (Table VII) was > 135 mg/kg; in test [2] (Rattus norvegicus, Table VII) it was 27 mg/kg.

For the molecule `CCOc1ccc(-c2[nH]c(S(C)(=O)=O)cc2-c2ccc(F)cc2)cc1` [Example 63], the ED50 in test [1] (Table VII) was > 108 mg/kg. Besides, the inhibition in vivo at 25 mg/kg in test [2] (setting [3]) is 34%.

As for `O=C(c1ccccc1)n1c(SC(F)(F)F)cc(-c2ccc(F)cc2)c1-c1ccc(F)cc1` [Example 76, 1-Benzoyl-4,5-bis(4-fluorophenyl)-2-(trifluoromethylthio)pyrrole], the ED50 was > 108 mg/kg in test [1] (Table VIII) and 6.6 mg/kg in test [2] (Rattus norvegicus, Table VIII).

With `O=S(=O)(c1cc(-c2ccc(Cl)cc2)c(-c2ccc(Cl)cc2)[nH]1)C(F)(F)F` [Example 58], the median effective dose (ED50) is < 130 mg/kg in test [1] (Table VII) and 1.7 mg/kg in test [2] (Rattus norvegicus, Table VII).

In the case of `Fc1ccc(-c2cc(SC(F)(F)F)[nH]c2-c2cccnc2)cc1` [Example 28], the ED50 was > 135 mg/kg in test [1] (Table VIII) and 0.04 mg/kg in test [2] (Rattus norvegicus, Table VIII).

With `Fc1ccc(-c2cc(SC(F)(F)C(F)F)[nH]c2-c2ccc(F)cc2)cc1` [Example 35, 4,5-Bis(4-fluorophenyl)-2-(1,1,2,2-tetrafluoroethylthio)pyrrole], the median effective dose (ED50) is > 108 mg/kg in test [1] (Table VII) and 4 mg/kg in test [2] (Rattus norvegicus, Table VII).

Take `CCS(=O)(=O)c1cc(-c2ccc(OC)cc2)c(-c2ccc(OC)cc2)[nH]1` [Example 55]: the 50% effective dose (ED50) stood at 19 mg/kg in test [1] (Table VII) and 9 mg/kg in test [2] (Rattus norvegicus, Table VII).

For `COc1ccc(-c2cc(S(C)(=O)=O)[nH]c2-c2ccc(OC)cc2)cc1` [Example 54], the ED50 was 16 mg/kg in test [1] (Table VII) and 1 mg/kg in test [2] (Rattus norvegicus, Table VII).

The values are drawn from patent US4267184A, “Antiinflammatory 4,5-diaryl-2-(substituted-thio)pyrroles and their corresponding sulfoxides and sulfones” (E. I. Du Pont de Nemours and Company, priority 1980, dated 1981).
